Assay in all cases: growth of human tumour cells (NCI), 48 h
The subject of test [1] is 786-0 renal.
Test [2] deals with HOP-62 NSCLC.
Test [3] concerns HCC-2998 colon.
In test [4] the test system is OVCAR-8 ovarian.
Test [5] concerns SK-MEL-2 melanoma.
Test [6] has as its system SK-MEL-5 melanoma.
Test [7] relates to OVCAR-4 ovarian.
For test [8], the system named is BT-549 breast.
The test system of test [9] is CCRF-CEM leukemia.
Test [10] deals with SNB-19 CNS.
For test [11], the system named is TK-10 renal.
Test [12] deals with SF-539 CNS.
In test [13] the test system is MCF7 breast.
The subject of test [14] is SF-268 CNS.
In test [15] the test system is SK-OV-3 ovarian.
In test [16] the test system is HOP-92 NSCLC.

SMILES strings stand for the structures.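 These data come from cells grown in 96-well plates and exposed to compound for 48 hours at five concentrations. The concentration for full growth arrest is given as TGI.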

`CC(=O)NC1C(OC(C)C(=O)NC(C)C(=O)NC(CCC(=O)NCCCCCNc2ccc([N+](=O)[O-])c3[nH]c4ccccc4c(=O)c23)C(N)=O)C(O)C(CO)OC1(C)OCc1ccccc1` (configuration not stated): the TGI in test [1], in test [2], in [3], in test [4], in test [5] and in [6] was over 100 µM each time. For the same molecule, the TGI in test [7] is over 100 µM; in [8] it was over 100 µM; in test [9] it was over 100 µM; in test [10], over 100 µM; in [11] it was 82.1 µM; in test [12], over 100 µM. Also, the TGI in [13], in test [14] and in test [15] was over 100 µM throughout.
With `O=c1oc2ccc3ccccc3c2cc1-c1nnc(Nc2ccccc2)s1`, the TGI is 31.6 µM in test [1]; over 100 µM in test [3]; 34.7 µM in test [5]; 38.8 µM in [7]; over 100 µM in test [8]; 65.4 µM in test [10]. For the same molecule, the figures for the TGI in test [11], in test [13] and in test [14] were 32.1 µM, over 100 µM and over 100 µM, respectively.
For the molecule `O=C(Nc1ccc(C(F)(F)F)cc1)NC(F)(F)F`, the TGI in [1], in test [3], in [4], in [5], in test [6] and in test [8] was over 100 µM each time. Further, the TGI in test [9], in [10], in test [11], in test [12], in [14] and in test [15] was over 100 µM each time.
On to `Cc1ccc(CC2(C(=O)O)Cc3ccc(C)cc3C2)cc1` (configuration not stated), for which the TGI in test [1], in test [2], in test [3], in test [4], in test [5] and in test [6] was over 100 µM in each case. In addition, the TGI in test [7], in test [8], in test [9], in test [10], in [11] and in test [12] was over 100 µM throughout. Besides, the TGI in [13], in [14] and in test [15] was over 100 µM throughout.
With `CN=C1Nc2ccccc2C(=O)N2CSCC12` (configuration not stated), the TGI in test [1], in [2], in test [3], in test [4], in [5] and in test [6] was over 100 µM each time. Moreover, the TGI in [7], in test [8], in test [9], in [10], in test [11] and in test [13] was over 100 µM each time. Also, the TGI in test [14] and in test [15] was over 100 µM in each case.
On to `C=CCOC(=O)CC[C@H](NC(=O)[C@@H](CCC(F)(F)F)Cc1ccc(O)cc1)C(=O)OCC=C`, for which the TGI in [1] is over 100 µM; in [2] it was over 100 µM; in test [4] it was over 100 µM; in test [16], over 100 µM; in [6] it was 35 µM; in [7], over 100 µM. For the same molecule, the TGI in [8] was over 100 µM; in [10], over 100 µM; in test [12], over 100 µM; in [13], 48.2 µM; in [14], over 100 µM; in test [15], over 100 µM.
On to `C=CCN(c1cc(OC)c(NC(C)=O)cc1[N+](=O)[O-])S(C)(=O)=O`, for which the TGI in test [1], in test [2], in test [3], in [4], in [5] and in [6] was over 100 µM throughout. Also, the TGI in test [7], in [8], in [9], in test [10], in test [11] and in [13] was over 100 µM each time. The TGI in test [14] and in test [15] was over 100 µM each time.
With `COC(=O)[C@]12CC3C=CC1N(C3)C(CBr)c1c2n(S(=O)(=O)c2ccccc2)c2ccccc12` (some centres not stated), the TGI in test [1], in test [2], in test [3], in [4], in [5] and in [6] was over 100 µM each time. Moreover, the TGI in [7], in [8], in [9], in [11], in test [13] and in test [15] was over 100 µM in each case.
With `O=C1C2C(C(=O)N1c1ccccc1)C1(c3ccccc3)CCC2(C(=O)c2ccccc2)O1` (configuration not stated), the TGI in test [1], in test [2], in test [3], in [4], in [5] and in [6] was over 10 µM in each case. Besides, the TGI in test [7], in [8], in [9], in [10], in test [11] and in test [12] was over 10 µM throughout. The TGI in [13], in test [14] and in test [15] was over 10 µM each time.
For the molecule `CCn1cc2c(=O)n3ncn(-c4ccc(Br)cc4)c3nc2n1`, the TGI in [1], in test [2], in test [3], in test [4], in [5] and in test [6] was over 100 µM each time. The TGI in [7], in test [8], in [9], in test [10], in [11] and in [13] was over 100 µM each time. For the same molecule, the TGI in test [14] and in test [15] was over 100 µM throughout.

(Values after PubChem BioAssay (NCI).)
